Test results as given in ChEMBL document CHEMBL4680350, “Novel penta-1,4-diene-3-one derivatives containing quinazoline and oxime ether fragments: Design, synthesis and bioactivity” (Bioorg Med Chem, 2021).
Calls of active or inactive are those of the source. The calls are words filed in the database; no cut-off is given here.

Assays:
SMMC-7721 [1] = assay: Anticancer activity against human SMMC-7721 cells assessed as inhibition of cell proliferation at 10 uM measured after 72 hrs by MTT assay; format: functional
SMMC-7721 [2] = assay: Anticancer activity against human SMMC-7721 cells assessed as inhibition of cell proliferation at 1 uM measured after 72 hrs by MTT assay; format: functional
SMMC-7721 [3] = assay: Anticancer activity against human SMMC-7721 cells assessed as inhibition of cell proliferation measured after 72 hrs by MTT assay; format: functional, cell-based; conditions: SMMC-7721, 72 h
SMMC-7721 [4] = assay: Induction of apoptosis in human SMMC-7721 cells assessed as increase in PARP-1 level t 1 to 20 uM incubated for 48 hrs by Western blot analysis; format: functional, cell-based; conditions: dose 1-20 µM
SMMC-7721 [5] = assay: Induction of apoptosis in human SMMC-7721 cells assessed as increase in caspase 3 level upto 20 uM incubated for 48 hrs by Western blot analysis; format: functional, cell-based; conditions: dose microM <=20, time 48.0 hrs
SMMC-7721 [6] = assay: Antimigratory activity against human SMMC-7721 cells assessed as inhibition of cell migration at 10 uM measured after 12 hrs by cell scratch assay; format: functional, cell-based
SMMC-7721 [7] = assay: Antimigratory activity against human SMMC-7721 cells assessed as inhibition of cell migration measured after 12 hrs by cell scratch assay; format: functional, cell-based
SMMC-7721 [8] = assay: Induction of cell cycle arrest in human SMMC-7721 cells assessed as accumulation of cells at […] measured after 24 hrs by flow cytometry; format: functional, cell-based
SMMC-7721 [9] = assay: Induction of cell cycle arrest in human SMMC-7721 cells assessed as accumulation of cells at G2/M measured after 24 hrs by flow cytometry; format: functional, cell-based
SMMC-7721 [10] = assay: Induction of apoptosis in human SMMC-7721 cells assessed as increase in PARP-1 level t 1 to 5 uM incubated for 48 hrs by Western blot analysis; format: functional, cell-based; conditions: dose 1-5 µM
SMMC-7721 [11] = assay: Cytotoxicity against human SMMC-7721 cells assessed as change in cell morphology at 1 uM incubated for 24 hrs; format: functional, cell-based
SMMC-7721 [12] = assay: Cytotoxicity against human SMMC-7721 cells assessed as change in cell morphology at 10 uM incubated for 48 hrs; format: functional, cell-based
SMMC-7721 [13] = assay: Induction of apoptosis in human SMMC-7721 cells as late apoptotic cells at 5 uM measured after 48 hrs by annexin V-FITC/PI based flow cytometric analysis relative to control; format: functional
SMMC-7721 [14] = assay: Induction of apoptosis in human SMMC-7721 cells at 1 uM measured after 48 hrs by annexin V-FITC/PI based flow cytometric analysis relative to control; format: functional
SMMC-7721 [15] = assay: Induction of apoptosis in human SMMC-7721 cells assessed as decrease in PARP-1 level t 10 to 20 uM incubated for 48 hrs by Western blot analysis; format: functional, cell-based; conditions: dose 10-20 µM
SMMC-7721 [16] = assay: Induction of apoptosis in human SMMC-7721 cells at 5 uM measured after 48 hrs by annexin V-FITC/PI based flow cytometric analysis relative to control; format: functional
SMMC-7721 [17] = assay: Induction of apoptosis in human SMMC-7721 cells as late apoptotic cells at 20 uM measured after 48 hrs by annexin V-FITC/PI based flow cytometric analysis relative to control; format: functional

Compound	inhibition at 10 µM (SMMC-7721 [1])	inhibition at 1 µM (SMMC-7721 [2])	also measured
Cc1cccc2ncnc(O/N=C(\C=C\c3ccccn3)/C=C/c3ccccc3OCc3ccccc3Cl)c12	95.7%	86.8%	–
Clc1ccc(COc2ccccc2/C=C/C(/C=C/c2ccccn2)=N/Oc2ncnc3cc(Cl)ccc23)cc1	94.8%	94%	–
Cc1cccc(COc2ccc(/C=C/C(/C=C/c3ccccn3)=N/Oc3ncnc4cccc(C)c34)cc2)c1	97%	93.4%	–
Cc1cccc2ncnc(O/N=C(\C=C\c3ccccn3)/C=C/c3ccccc3OCc3ccc(Cl)cc3)c12	94.5%	93.4%	–
Cc1cccc2ncnc(O/N=C(/C=C/c3ccc(OCc4ccccc4Cl)cc3)\C=C\c3ccccn3)c12	84.7%	77%	–
Cc1cccc2ncnc(O/N=C(\C=C\c3ccccn3)/C=C/c3ccccc3OCc3ccc(Cl)cc3Cl)c12	93.9%	90.8%	–
Clc1ccc(COc2ccccc2/C=C/C(/C=C/c2ccccn2)=N/Oc2ncnc3ccccc23)c(Cl)c1	87.5%	33.3%	IC50 (SMMC-7721 [3]): 8550 nM; Activity (SMMC-7721 [4]): Active; Activity (SMMC-7721 [5]): Active; Activity (SMMC-7721 [6]): inactive; Activity (SMMC-7721 [7]): inactive; Activity (SMMC-7721 [8]): Active
Clc1ccccc1COc1ccccc1/C=C/C(/C=C/c1ccccn1)=N/Oc1ncnc2ccccc12	96%	95.7%	–
Clc1ccc(COc2ccc(/C=C/C(/C=C/c3ccccn3)=N/Oc3ncnc4ccccc34)cc2)c(Cl)c1	89.6%	–	–
Fc1ccccc1COc1ccc(/C=C/C(/C=C/c2ccccn2)=N/Oc2ncnc3cc(Cl)ccc23)cc1	91.2%	81.1%	–
Cc1cccc(COc2ccc(/C=C/C(/C=C/c3ccccn3)=N/Oc3ncnc4ccccc34)cc2)c1	97.5%	69.2%	Activity (SMMC-7721 [9]): Active; Activity (SMMC-7721 [10]): Active; Activity (SMMC-7721 [11]): Active; Activity (SMMC-7721 [12]): Active; Activity (SMMC-7721 [13]): 99.4%; IC50 (SMMC-7721 [3]): 640 nM; Activity (SMMC-7721 [14]): 23%; Activity (SMMC-7721 [5]): Active; Activity (SMMC-7721 [6]): inactive; Activity (SMMC-7721 [15]): Active; Activity (SMMC-7721 [7]): inactive; Activity (SMMC-7721 [16]): 99.9%
Nc1ccn([C@@H]2O[C@H](CO)[C@@H](O)C2(F)F)c(=O)n1 [GEMCITABINE]	61.5%	38.5%	IC50 (SMMC-7721 [3]): 1400 nM
Clc1ccc(COc2ccc(/C=C/C(/C=C/c3ccccn3)=N/Oc3ncnc4cc(Cl)ccc34)cc2)c(Cl)c1	23.6%	–	–
Clc1ccc(COc2ccccc2/C=C/C(/C=C/c2ccccn2)=N/Oc2ncnc3cc(Cl)ccc23)c(Cl)c1	91.8%	23.6%	Activity (SMMC-7721 [9]): Active; IC50 (SMMC-7721 [3]): 10400 nM; Activity (SMMC-7721 [5]): Active; Activity (SMMC-7721 [6]): inactive; Activity (SMMC-7721 [7]): inactive
Fc1ccccc1COc1ccccc1/C=C/C(/C=C/c1ccccn1)=N/Oc1ncnc2cc(Cl)ccc12	94.8%	94.2%	Activity (SMMC-7721 [11]): Active; Activity (SMMC-7721 [12]): Active
Clc1ccc(COc2ccc(/C=C/C(/C=C/c3ccccn3)=N/Oc3ncnc4ccccc34)cc2)cc1	94.4%	91.2%	–
Clc1ccccc1COc1ccc(/C=C/C(/C=C/c2ccccn2)=N/Oc2ncnc3ccccc23)cc1	96.9%	10.1%	–
Clc1ccc(COc2ccc(/C=C/C(/C=C/c3ccccn3)=N/Oc3ncnc4cc(Cl)ccc34)cc2)cc1	88.1%	67.4%	Activity (SMMC-7721 [9]): Active; Activity (SMMC-7721 [11]): Active; Activity (SMMC-7721 [12]): Active; IC50 (SMMC-7721 [3]): 630 nM; Activity (SMMC-7721 [4]): Active; Activity (SMMC-7721 [5]): Active; Activity (SMMC-7721 [6]): inactive; Activity (SMMC-7721 [17]): 88%; Activity (SMMC-7721 [7]): inactive
Clc1ccc2c(O/N=C(/C=C/c3ccc(OCc4ccccc4Cl)cc3)\C=C\c3ccccn3)ncnc2c1	84.7%	18.1%	–
Clc1ccc2c(O/N=C(\C=C\c3ccccn3)/C=C/c3ccccc3OCc3ccccc3Cl)ncnc2c1	94.5%	94.8%	–
Cc1cccc(COc2ccc(/C=C/C(/C=C/c3ccccn3)=N/Oc3ncnc4cc(Cl)ccc34)cc2)c1	95.6%	78.6%	–
Clc1ccc(COc2ccc(/C=C/C(/C=C/c3cccs3)=N/Oc3ncnc4ccccc34)cc2)cc1	97.5%	89.3%	–
